Marks after values point to notes of the source that are not given here.
Tests used:
Format in all cases: in vivo, human
[1] = Phase 2/3 104-week placebo-controlled study of lanabecestat in early Alzheimer's Disease: effect on weight; conditions: for Weight decrease ≥ 7%, (%): placebo 12.7; for mean weight change: completers at week 104, placebo 0.0 kg
Text: A Phase 2/3, multicenter, randomized, 104-week, double-blind, placebo-controlled, global study of lanabecestat in patients with early Alzheimer's Disease (AD), defined as the continuum of patients with mild cognitive impairment (MCI) due to AD and patients diagnosed with mild AD dementia.
Lanabecestat, i.e., the camsylate salt of (1r,1′R,4R)-4-methoxy-5″-methyl-6′-[5-(prop-1-yn-1-yl)pyridin-3-yl]-3′H-dispiro[cyclohexane-1,2′-indene-1′,2″-imidazol]-4″-amine
was provided orally once daily for 104 weeks at 20 mg or 50 mg and compared to the results for once daily administration of placebo.
(§1) The key inclusion criteria for the study were as follows: • Population aged 55 to 85 years old; • Mild AD: meet National Institute on Aging and the Alzheimer's Association (NIA-AA) criteria with a Clinical Dementia Rating Scale-Global Score (CDR-GS) of 0.5 or 1; • MCI: meet NIA-AA criteria with a CDR-GS of 0.5; • CDR memory box score ≥0.5; • Mini-Mental State Examination (MMSE)≥20; • Repeatable Battery for the Assessment of Neuropsychological Status Delayed Memory Index (RBANS DMI)≤85; • Study partner; • Amyloid positive • Cerebrospinal fluid; or • Florbetapir amyloid Positron Emission Tomography (PET); or • Historical amyloid PET.
(§2) The key exclusion criteria for the study were as follows: • Unstable medical conditions or medications; • Magnetic Resonance Imaging (MRI): >5 microhemorrhages, significant cerebrovascular pathology, or other pathologies; • QT interval adjusted for heart rate using the Fridericia formula (QTcF) >470 ms; • History of vitiligo and/or current evidence of post-inflammatory hypo-pigmentation or exposure to depigmenting agents.
Comparing completers at week 104, the mean weight change was for 0.0 kg for placebo (n=202), −0.8 kg for lanabecestat 20 mg (n=187), and −1.9 kg for lanabecestat 50 mg (n=178). The overall p-value and pairwise p-value compared to placebo was ≤0.05 (nominal p-value, not adjusted for multiplicity).

[2] = Phase 3 study of lanabecestat in mild AD dementia, 78-week placebo-controlled period: effect on weight; conditions: for Weight decrease ≥ 7%, (%): placebo 6.3; for mean weight change: completers at week 78, placebo −0.2 kg
Description: A Phase 3, multicenter, randomized, double-blind, global study of lanabecestat in patients with mild AD dementia that included a 78-week placebo-controlled period, for which results are provided below.
Lanabecestat was provided orally once daily for 78 weeks at 20 mg or 50 mg and compared to the results for once daily administration of placebo.
as §1, with “years;” for “years old;”, “1,” for “1; • MCI: meet NIA-AA criteria”, “with” for “with a CDR-GS of 0.5; • CDR”, “(MMSE) score 20-26;” for “(MMSE)≥20; • Repeatable Battery for the Assessment of Neuropsychological Status Delayed Memory Index (RBANS DMI)≤85;”
as §2, with “were:” for “were as follows:”, “resonance imaging” for “Resonance Imaging”, “hypo-pigmentation.” for “hypo-pigmentation or exposure to depigmenting agents.”
Comparing completers at week 78, the mean weight change was −0.2 kg for placebo (n=24), −1.4 kg for lanabecestat 20 mg (n=27), and −2.9 kg for lanabecestat 50 mg (n=20). The overall p-value and pairwise p-value compared to placebo was ≤0.05 (nominal p-value, not adjusted for multiplicity).

[3] = Combined analysis of the two studies of Examples 1 and 2: weight change from baseline and weight decrease over time; conditions: for mean (SD) kg change from baseline: 52 weeks
Description: A further analysis of the subjects in the two studies described in Examples 1 and 2 above was performed, for which results are provided below.
FIGS. 1-3 show weight change from baseline over the course of the 104 week studies. […] At 52 weeks, the mean (SD) kg change from baseline in the Lanabecestat 50 mg group versus placebo was −1.5 kg (4.4) vs +0.1 kg (3.4).
At 52 weeks, the mean (SD) kg change from baseline in the Lanabecestat 50 mg group versus placebo was −0.65 kg (3.4) vs +0.3 kg (3.3).
Table 10 provides data for the weight decrease over time for the population with a baseline BMI>25 kg/m^2 versus the overall population, showing that there is a greater percent decrease in weight in the higher BMI group versus the overall population.

[4] = week 26, all patients, L20 (20 mg), N=1080
[5] = week 26, all patients, L50 (50 mg), N=1047
[6] = week 26, patients with baseline BMI > 25, L20 (20 mg), N=532
[7] = week 26, patients with baseline BMI > 25, L50 (50 mg), N=494
[8] = week 52, all patients, L20 (20 mg), N=726
[9] = week 52, all patients, L50 (50 mg), N=716
[10] = week 52, patients with baseline BMI > 25, L20 (20 mg), N=348
[11] = week 52, patients with baseline BMI > 25, L50 (50 mg), N=348
[12] = week 78, all patients, L20 (20 mg), N=366
[13] = week 78, all patients, L50 (50 mg), N=347
[14] = week 78, patients with baseline BMI > 25, L20 (20 mg), N=170
[15] = week 78, patients with baseline BMI > 25, L50 (50 mg), N=161
[16] = week 104, all patients, L20 (20 mg), N=187
[17] = week 104, all patients, L50 (50 mg), N=178
[18] = week 104, patients with baseline BMI > 25, L20 (20 mg), N=89
[19] = week 104, patients with baseline BMI > 25, L50 (50 mg), N=77

Structure (SMILES): CC#Cc1cncc(-c2ccc3c(c2)[C@@]2(N=C(C)C(N)=N2)[C@]2(CC[C@H](OC)CC2)C3)c1 [Lanabecestat, (1r,1′R,4R)-4-methoxy-5″-methyl-6′-[5-(prop-1-yn-1-yl)pyridin-3-yl]-3′H-dispiro[cyclohexane-1,2′-indene-1′,2″-imidazol]-4″-amine]
- Weight decrease ≥ 7%, (%) ([1]; 20 mg, N=728): (21.2)* %
- Weight decrease ≥ 7%, (%) ([1]; 50 mg, N=723): (24.9)* %
- mean weight change ([1]; lanabecestat 20 mg once daily oral, n=187): -0.8 kg
- mean weight change ([1]; lanabecestat 50 mg once daily oral, n=178): -1.9 kg
- Weight decrease ≥ 7%, (%) ([2]; 20 mg, N=570): (9.5) %
- Weight decrease ≥ 7%, (%) ([2]; 50 mg, N=545): (14.5)* %
- mean weight change ([2]; lanabecestat 20 mg once daily oral, n=27): -1.4 kg
- mean weight change ([2]; lanabecestat 50 mg once daily oral, n=20): -2.9 kg
- weight loss of ≥5% and ≥10% versus placebo ([3]; 50 mg, at 2 years): statistically significant weight loss
- mean (SD) kg change from baseline ([3]; baseline BMI>25 kg/m^2, 50 mg, SD 5.2, placebo −0.4 kg (3.6)): -2.5 kg
- mean (SD) kg change from baseline ([3]; baseline BMI≤25 kg/m^2, 50 mg, SD 3.4, placebo +0.3 kg (3.3)): -0.65 kg
- mean (SD) kg change from baseline ([3]; overall population, 50 mg, SD 4.4, placebo +0.1 kg (3.4)): -1.5 kg
- Weight loss ≥5%, % of patients [3, 4]: (14%)***
- Weight loss ≥5%, n patients [3, 4]: 147
- Weight loss ≥10%, % of patients [3, 4]: 1%
- Weight loss ≥10%, n patients [3, 4]: 15
- Weight loss ≥15%, % of patients [3, 4]: 0.3%
- Weight loss ≥15%, n patients [3, 4]: 3
- Weight loss ≥5%, % of patients [3, 5]: (16%)***
- Weight loss ≥5%, n patients [3, 5]: 172
- Weight loss ≥10%, % of patients [3, 5]: (3%)**
- Weight loss ≥10%, n patients [3, 5]: 28
- Weight loss ≥15%, % of patients [3, 5]: 0.5%
- Weight loss ≥15%, n patients [3, 5]: 5
- Weight loss ≥5%, % of patients [3, 6]: (16%)***
- Weight loss ≥5%, n patients [3, 6]: 87
- Weight loss ≥10%, % of patients [3, 6]: 2%
- Weight loss ≥10%, n patients [3, 6]: 11
- Weight loss ≥15%, % of patients [3, 6]: 0.6%
- Weight loss ≥15%, n patients [3, 6]: 3
- Weight loss ≥5%, % of patients [3, 7]: (18%)***
- Weight loss ≥5%, n patients [3, 7]: 90
- Weight loss ≥10%, % of patients [3, 7]: 4%
- Weight loss ≥10%, n patients [3, 7]: 20
- Weight loss ≥15%, % of patients [3, 7]: 1%
- Weight loss ≥15%, n patients [3, 7]: 3
- Weight loss ≥5%, % of patients [3, 8]: (19%)***
- Weight loss ≥5%, n patients [3, 8]: 139
- Weight loss ≥10%, % of patients [3, 8]: 5%
- Weight loss ≥10%, n patients [3, 8]: 35
- Weight loss ≥15%, % of patients [3, 8]: 1%
- Weight loss ≥15%, n patients [3, 8]: 8
- Weight loss ≥5%, % of patients [3, 9]: (25%)***
- Weight loss ≥5%, n patients [3, 9]: 180
- Weight loss ≥10%, % of patients [3, 9]: (5%)**
- Weight loss ≥10%, n patients [3, 9]: 39
- Weight loss ≥15%, % of patients [3, 9]: 1%
- Weight loss ≥15%, n patients [3, 9]: 8
- Weight loss ≥5%, % of patients [3, 10]: (24%)***
- Weight loss ≥5%, n patients [3, 10]: 82
- Weight loss ≥10%, % of patients [3, 10]: 7%
- Weight loss ≥10%, n patients [3, 10]: 26
- Weight loss ≥15%, % of patients [3, 10]: 2%
- Weight loss ≥15%, n patients [3, 10]: 8
- Weight loss ≥5%, n patients [3, 11]: 104
- Weight loss ≥10%, % of patients [3, 11]: 7%
- Weight loss ≥10%, n patients [3, 11]: 26
- Weight loss ≥15%, % of patients [3, 11]: 2%
- Weight loss ≥15%, n patients [3, 11]: 6
- Weight loss ≥5%, % of patients [3, 12]: (23%)**
- Weight loss ≥5%, n patients [3, 12]: 85
- Weight loss ≥10%, % of patients [3, 12]: 7%
- Weight loss ≥10%, n patients [3, 12]: 26
- Weight loss ≥15%, % of patients [3, 12]: 2%
- Weight loss ≥15%, n patients [3, 12]: 9
- Weight loss ≥5%, % of patients [3, 13]: (31%)***
- Weight loss ≥5%, n patients [3, 13]: 107
- Weight loss ≥10%, % of patients [3, 13]: (10%)***
- Weight loss ≥10%, n patients [3, 13]: 36
- Weight loss ≥15%, % of patients [3, 13]: 2%
- Weight loss ≥15%, n patients [3, 13]: 7
- Weight loss ≥5%, % of patients [3, 14]: (31%)*
- Weight loss ≥5%, n patients [3, 14]: 52
- Weight loss ≥10%, % of patients [3, 14]: 10%
- Weight loss ≥10%, n patients [3, 14]: 17
- Weight loss ≥15%, % of patients [3, 14]: 5%
- Weight loss ≥15%, n patients [3, 14]: 9
- Weight loss ≥5%, % of patients [3, 15]: (35%)**
- Weight loss ≥5%, n patients [3, 15]: 57
- Weight loss ≥10%, % of patients [3, 15]: 12%
- Weight loss ≥10%, n patients [3, 15]: 20
- Weight loss ≥15%, % of patients [3, 15]: 3%
- Weight loss ≥15%, n patients [3, 15]: 5
- Weight loss ≥5%, % of patients [3, 16]: 26%
- Weight loss ≥5%, n patients [3, 16]: 48
- Weight loss ≥10%, % of patients [3, 16]: 9%
- Weight loss ≥10%, n patients [3, 16]: 16
- Weight loss ≥15%, % of patients [3, 16]: 2%
- Weight loss ≥15%, n patients [3, 16]: 4
- Weight loss ≥5%, % of patients [3, 17]: (38%)***
- Weight loss ≥5%, n patients [3, 17]: 67
- Weight loss ≥10%, % of patients [3, 17]: (17%)***
- Weight loss ≥10%, n patients [3, 17]: 31
- Weight loss ≥15%, % of patients [3, 17]: 3%
- Weight loss ≥15%, n patients [3, 17]: 6
- Weight loss ≥5%, % of patients [3, 18]: 30%
- Weight loss ≥5%, n patients [3, 18]: 27
- Weight loss ≥10%, % of patients [3, 18]: 15%
- Weight loss ≥10%, n patients [3, 18]: 13
- Weight loss ≥15%, % of patients [3, 18]: 4 (4%)
- Weight loss ≥15%, n patients [3, 18]: 4 (4%)
- Weight loss ≥5%, % of patients [3, 19]: (42%)**
- Weight loss ≥5%, n patients [3, 19]: 32
- Weight loss ≥10%, % of patients [3, 19]: 19%
- Weight loss ≥15%, % of patients [3, 19]: 4%
- Weight loss ≥15%, n patients [3, 19]: 3

Source: patent publication US20220175749A1, “LANABECESTAT FOR WEIGHT LOSS” (ASTRAZENECA AB, priority 2019, published 2022)
